Reference: ChEMBL document CHEMBL1128242, “Polyiodinated triglyceride analogs as potential computed tomography imaging agents for the liver” (J Med Chem, 1995)

Legend:
Rattus norvegicus [1] = assay: Distribution of radioactivity was determined in liver at 24 hr after intravenous administration of 1,3-Disubstituted Triacylglycerols in rats; type: ADME, organism-based; settings: in vivo
Rattus norvegicus [2] = assay: Analysis of lipid-soluble radioactivity in liver 0.5 hour after iv administration of [125I]-labeled 2-Oleoyl 1,3-disubstituted Triacylglycerols and represented as % CHCl3/CH3OH from rat; type: ADME, organism-based; settings: in vivo
Rattus norvegicus [3] = assay: Polyacrylamide Gel Electrophoresis (PAGE) to determined the concentration of below albumin(BA) in rats after iv administration of [125I]-labeled 2-Oleolyl 1,3-disubstituted triglycerols was reported; type: ADME, organism-based; settings: in vivo
Rattus norvegicus [4] = assay: Distribution of radioactivity was determined in spleen at 3h after intravenous administration of [125I]-labeled 2-oleoglycerol 1,3-Bis-[omega-(3-amino-2,4,6-triiodophenyl)alkanoates] in rats; type: ADME, organism-based; settings: in vivo
Rattus norvegicus [5] = assay: Distribution of radioactivity was determined in blood at 30 min after intravenous administration of 1,3-Disubstituted Triacylglycerols in rats; type: ADME, organism-based; settings: in vivo, 0.5 h
Rattus norvegicus [6] = assay: Analysis of lipid-soluble radioactivity in liver 0.5 hour after iv administration of [125I]-labeled 2-Oleoyl 1,3-disubstituted Triacylglycerols expressed as %parent compound (by TLC with authentic [125I]-labeled standard) from rat; type: ADME, organism-based; settings: in vivo
Rattus norvegicus [7] = assay: Distribution of radioactivity was determined in blood at 24 hr after intravenous administration of 1,3-Disubstituted Triacylglycerols in rats; type: ADME, organism-based; settings: in vivo
Rattus norvegicus [8] = assay: Polyacrylamide Gel Electrophoresis (PAGE) to determined the concentration of high density lipoprotein (HDL) in rats after iv administration of [125I]-labeled 2-Oleolyl 1,3-disubstituted triglycerols was reported; type: ADME, organism-based; settings: in vivo
Rattus norvegicus [9] = assay: Distribution of radioactivity was determined in kidney at 3h after intravenous administration of [125I]-labeled 2-oleoglycerol 1,3-Bis-[omega-(3-amino-2,4,6-triiodophenyl)alkanoates] in rats; type: ADME, organism-based; settings: in vivo
Rattus norvegicus [10] = assay: Distribution of radioactivity was determined in lung at 30 min after intravenous administration of [125I]-labeled 2-oleoglycerol 1,3-Bis-[omega-(3-amino-2,4,6-triiodophenyl)alkanoates] in rats; type: ADME, organism-based; settings: in vivo, 0.5 h
Rattus norvegicus [11] = assay: Distribution of radioactivity was determined in kidney at 24 hr after intravenous administration of [125I]-labeled 2-oleoglycerol 1,3-Bis-[omega-(3-amino-2,4,6-triiodophenyl)alkanoates] in rats; type: ADME, organism-based; settings: in vivo
Rattus norvegicus [12] = assay: Distribution of radioactivity was determined in liver at 24 hr after intravenous administration of [125I]-labeled 2-oleoglycerol 1,3-Bis-[omega-(3-amino-2,4,6-triiodophenyl)alkanoates] in rats; type: ADME, organism-based; settings: in vivo
Rattus norvegicus [13] = assay: Distribution of radioactivity was determined in heart at 3h after intravenous administration of [125I]-labeled 2-oleoglycerol 1,3-Bis-[omega-(3-amino-2,4,6-triiodophenyl)alkanoates] in rats; type: ADME, organism-based; settings: in vivo
Rattus norvegicus [14] = assay: Analysis of lipid-soluble radioactivity in plasma 0.5 hour after iv administration of [125I]-labeled 2-Oleoyl 1,3-disubstituted Triacylglycerols expressed as %parent compound (by TLC with authentic [125I]-labeled standard) from rat; type: ADME, organism-based; settings: in vivo
Rattus norvegicus [15] = assay: Analysis of lipid-soluble radioactivity in liver 24 hour after iv administration of [125I]-labeled 2-Oleoyl 1,3-disubstituted Triacylglycerols and represented as % CHCl3/CH3OH from rat; type: ADME, organism-based; settings: in vivo
Rattus norvegicus [16] = assay: Distribution of radioactivity was determined in plasma at 24 hr after intravenous administration of [125I]-labeled 2-oleoglycerol 1,3-Bis-[omega-(3-amino-2,4,6-triiodophenyl)alkanoates] in rats; type: ADME, organism-based; design: unit not given here; settings: in vivo
Rattus norvegicus [17] = assay: Distribution of radioactivity was determined in thyroid at 3h after intravenous administration of [125I]-labeled 2-oleoglycerol 1,3-Bis-[omega-(3-amino-2,4,6-triiodophenyl)alkanoates] in rats; type: ADME, organism-based, Thyroid gland; settings: in vivo
Rattus norvegicus [18] = assay: Analysis of lipid-soluble radioactivity in liver 24 hour after iv administration of [125I]-labeled 2-Oleoyl 1,3-disubstituted Triacylglycerols expressed as %parent compound (by TLC with authentic [125I]-labeled standard) from rat; type: ADME, organism-based; settings: in vivo
Rattus norvegicus [19] = assay: Distribution of radioactivity was determined in spleen at 48 hr after intravenous administration of 1,3-Disubstituted Triacylglycerols in rats; type: ADME, organism-based; settings: in vivo
Rattus norvegicus [20] = assay: Distribution of radioactivity was determined in thyroid at 24 hr after intravenous administration of [125I]-labeled 2-oleoglycerol 1,3-Bis-[omega-(3-amino-2,4,6-triiodophenyl)alkanoates] in rats; type: ADME, organism-based, Thyroid gland; settings: in vivo
Rattus norvegicus [21] = assay: Distribution of radioactivity was determined in blood at 48 hr after intravenous administration of 1,3-Disubstituted Triacylglycerols in rats; type: ADME, organism-based; settings: in vivo
Rattus norvegicus [22] = assay: Analysis of lipid-soluble radioactivity in plasma 0.5 hour after iv administration of [125I]-labeled 2-Oleoyl 1,3-disubstituted Triacylglycerols and represented as % CHCl3/CH3OH from rat; type: ADME, organism-based; settings: in vivo
Rattus norvegicus [23] = assay: Distribution of radioactivity was determined in thyroid at 30 min after intravenous administration of [125I]-labeled 2-oleoglycerol 1,3-Bis-[omega-(3-amino-2,4,6-triiodophenyl)alkanoates] in rats; type: ADME, organism-based, Thyroid gland; settings: in vivo, 0.5 h
Rattus norvegicus [24] = assay: Distribution of radioactivity was determined in blood at 30 min after intravenous administration of [125I]-labeled 2-oleoglycerol 1,3-Bis-[omega-(3-amino-2,4,6-triiodophenyl)alkanoates] in rats; type: ADME, organism-based; settings: in vivo, 0.5 h
Rattus norvegicus [25] = assay: Distribution of radioactivity was determined in blood at 3h after intravenous administration of 1,3-Disubstituted Triacylglycerols in rats; type: ADME, organism-based; settings: in vivo
Rattus norvegicus [26] = assay: Distribution of radioactivity was determined in heart at 30 min after intravenous administration of [125I]-labeled 2-oleoglycerol 1,3-Bis-[omega-(3-amino-2,4,6-triiodophenyl)alkanoates] in rats; type: ADME, organism-based; settings: in vivo, 0.5 h
Rattus norvegicus [27] = assay: Distribution of radioactivity was determined in liver at 48 hr after intravenous administration of 1,3-Disubstituted Triacylglycerols in rats; type: ADME, organism-based; settings: in vivo
Rattus norvegicus [28] = assay: Distribution of radioactivity was determined in blood at 3h after intravenous administration of [125I]-labeled 2-oleoglycerol 1,3-Bis-[omega-(3-amino-2,4,6-triiodophenyl)alkanoates] in rats; type: ADME, organism-based; settings: in vivo
Rattus norvegicus [29] = assay: Distribution of radioactivity was determined in plasma at 30 min after intravenous administration of [125I]-labeled 2-oleoglycerol 1,3-Bis-[omega-(3-amino-2,4,6-triiodophenyl)alkanoates] in rats; type: ADME, organism-based; settings: in vivo, 0.5 h
Rattus norvegicus [30] = assay: Polyacrylamide Gel Electrophoresis (PAGE) to determined the concentration of albumin(ALB) in rats after iv administration of [125I]-labeled 2-Oleolyl 1,3-disubstituted triglycerols was reported; type: ADME, organism-based; settings: in vivo
Rattus norvegicus [31] = assay: Distribution of radioactivity was determined in lung at 24 hr after intravenous administration of [125I]-labeled 2-oleoglycerol 1,3-Bis-[omega-(3-amino-2,4,6-triiodophenyl)alkanoates] in rats; type: ADME, organism-based; settings: in vivo
Rattus norvegicus [32] = assay: Distribution of radioactivity was determined in spleen at 3h after intravenous administration of 1,3-Disubstituted Triacylglycerols in rats; type: ADME, organism-based; settings: in vivo
Rattus norvegicus [33] = assay: Polyacrylamide Gel Electrophoresis (PAGE) to determined the concentration of stacking gel(SG) in rats after iv administration of [125I]-labeled 2-Oleolyl 1,3-disubstituted triglycerols was reported; type: ADME, organism-based; settings: in vivo
Rattus norvegicus [34] = assay: Polyacrylamide Gel Electrophoresis (PAGE) to determined the concentration of low density lipoprotein (LDL) in rats after iv administration of [125I]-labeled 2-Oleolyl 1,3-disubstituted triglycerols was reported; type: ADME, organism-based; settings: in vivo

CCCCCCCC/C=C/CCCCCCCC(=O)OC(COC(=O)CCCCc1c(I)cc(I)c(N)c1I)COC(=O)CCCCc1c(I)cc(I)c(N)c1I
Distribution of radioactivity (Rattus norvegicus [1]): 36.1 % dose/organ | Lipid-soluble radioactivity (Rattus norvegicus [2]): 91.1 | Radioactivity (Rattus norvegicus [3]): 0.1% | Distribution of radioactivity (Rattus norvegicus [4]): 14.5 % dose/g | Distribution of radioactivity (Rattus norvegicus [5]): 0.9 % dose/organ | Lipid-soluble radioactivity (Rattus norvegicus [6]): 98.9 | Distribution of radioactivity (Rattus norvegicus [7]): 1.4 % dose/organ | Radioactivity (Rattus norvegicus [8]): 5.5% | Distribution of radioactivity (Rattus norvegicus [9]): 0.09 % dose/g | Distribution of radioactivity (Rattus norvegicus [10]): 0.54 % dose/g | Distribution of radioactivity (Rattus norvegicus [11]): 0.2 % dose/g | Distribution of radioactivity (Rattus norvegicus [12]): 4.53 % dose/g | Distribution of radioactivity (Rattus norvegicus [13]): 0.09 % dose/g | Lipid-soluble radioactivity (Rattus norvegicus [14]): 42.3 | Lipid-soluble radioactivity (Rattus norvegicus [15]): 88.8 | Distribution of radioactivity (Rattus norvegicus [16]): 0.14 | Distribution of radioactivity (Rattus norvegicus [17]): 1.16 % dose/g | Lipid-soluble radioactivity (Rattus norvegicus [18]): 86.5 | Distribution of radioactivity (Rattus norvegicus [19]): 3.7 % dose per organ | Distribution of radioactivity (Rattus norvegicus [20]): 6.74 % dose/g | Distribution of radioactivity (Rattus norvegicus [21]): 0.7 % dose per organ | Lipid-soluble radioactivity (Rattus norvegicus [22]): 77.4 | Distribution of radioactivity (Rattus norvegicus [23]): 0.54 % dose/g | Distribution of radioactivity (Rattus norvegicus [24]): 0.08 % dose/g | Distribution of radioactivity (Rattus norvegicus [25]): 0.9 % dose/organ | Distribution of radioactivity (Rattus norvegicus [26]): 0.59 % dose/g | Distribution of radioactivity (Rattus norvegicus [27]): 26.8 % dose/organ | Distribution of radioactivity (Rattus norvegicus [28]): 0.08 % dose/g | Distribution of radioactivity (Rattus norvegicus [29]): 0.1 % dose/g | Radioactivity (Rattus norvegicus [30]): 20.7% | Distribution of radioactivity (Rattus norvegicus [31]): 0.59 % dose/g | Distribution of radioactivity (Rattus norvegicus [32]): 8 % dose/organ | Radioactivity (Rattus norvegicus [33]): 65.6% | Radioactivity (Rattus norvegicus [34]): 8.1%

CCCCCCCC/C=C/CCCCCCCC(=O)OC(COC(=O)C(CC)Cc1c(I)cc(I)c(N)c1I)COC(=O)C(CC)Cc1c(I)cc(I)c(N)c1I (stereo not drawn)
Distribution of radioactivity (Rattus norvegicus [1]): 77 % dose/organ | Lipid-soluble radioactivity (Rattus norvegicus [2]): 97.5 | Radioactivity (Rattus norvegicus [3]): 1.5% | Distribution of radioactivity (Rattus norvegicus [4]): 17.7 % dose/g | Distribution of radioactivity (Rattus norvegicus [5]): 2.6 % dose/organ | Lipid-soluble radioactivity (Rattus norvegicus [6]): 78.6 | Distribution of radioactivity (Rattus norvegicus [7]): 0.1 % dose/organ | Radioactivity (Rattus norvegicus [8]): 2.5% | Distribution of radioactivity (Rattus norvegicus [9]): 0.03 % dose/g | Distribution of radioactivity (Rattus norvegicus [10]): 0.34 % dose/g | Distribution of radioactivity (Rattus norvegicus [11]): 0.05 % dose/g | Distribution of radioactivity (Rattus norvegicus [12]): 10.2 % dose/g | Distribution of radioactivity (Rattus norvegicus [13]): 0.25 % dose/g | Lipid-soluble radioactivity (Rattus norvegicus [14]): 26.5 | Lipid-soluble radioactivity (Rattus norvegicus [15]): 93.7 | Distribution of radioactivity (Rattus norvegicus [16]): 0.01 | Distribution of radioactivity (Rattus norvegicus [17]): 5.08 % dose/g | Lipid-soluble radioactivity (Rattus norvegicus [18]): 64.7 | Distribution of radioactivity (Rattus norvegicus [19]): 9.8 % dose per organ | Distribution of radioactivity (Rattus norvegicus [20]): 17.3 % dose/g | Distribution of radioactivity (Rattus norvegicus [21]): 0.1 % dose per organ | Lipid-soluble radioactivity (Rattus norvegicus [22]): 88.2 | Distribution of radioactivity (Rattus norvegicus [23]): 2.88 % dose/g | Distribution of radioactivity (Rattus norvegicus [24]): 0.26 % dose/g | Distribution of radioactivity (Rattus norvegicus [25]): 0.3 % dose/organ | Distribution of radioactivity (Rattus norvegicus [26]): 0.84 % dose/g | Distribution of radioactivity (Rattus norvegicus [27]): 71.6 % dose/organ | Distribution of radioactivity (Rattus norvegicus [28]): 0.02 % dose/g | Distribution of radioactivity (Rattus norvegicus [29]): 0.42 % dose/g | Radioactivity (Rattus norvegicus [30]): 4.9% | Distribution of radioactivity (Rattus norvegicus [31]): 0.62 % dose/g | Distribution of radioactivity (Rattus norvegicus [32]): 11.3 % dose/organ | Radioactivity (Rattus norvegicus [33]): 83.5% | Radioactivity (Rattus norvegicus [34]): 7.4%
